Data from paper PMC4177084 (Journal of Thyroid Research, 2014).

Experiments:
VEGFR, FGFR, KIT, PDGFR = test: Cell free kinase inhibition assay, summary for RTKs; format: biochemical; details: PDGFR (Supplementary Table S1)
Description: […]. Briefly, each test compound was mixed with enzyme, substrate, ATP, and Mg under appropriate buffer conditions for the ELISA or MSA. […] IC50 values (the half maximal inhibitory concentration) were calculated from concentrations versus % inhibition curves.

IKKb = molecular target: T1, IKKb (Homo sapiens, UniProt O14920); test: Cell free kinase inhibition assay; format: biochemical
T1 construct: purchased Carna Biosciences, Inc. (Kobe, Japan)

[1] = test system: 5 DTC xenograft models (K1, RO82-W-1, FTC-133, FTC-236, FTC-238); test: Human thyroid cancer xenograft models, tumor growth; format: in vivo, nude mice; details: all 5 DTC xenograft models, 30 and 100 mg/kg oral once daily 14 days
Description: (§1) Nude mice (CAnN.Cg-Foxn1nu/CrlCrlj, female, 5-6 weeks old) were obtained from Charles River Laboratories Japan (Kanagawa, Japan). Mice were maintained under specific pathogen-free conditions and housed in barrier facilities on a 12 h light/dark cycle, with food and water ad libitum. All procedures using laboratory animals were done in accordance with all applicable institutional and government regulatory guidelines and policies and were performed in an animal facility accredited by the Center for Accreditation of Laboratory Animal Care of the Japan Health Sciences Foundation. Tumor cells were cultured in appropriate culture mediums. […] Then, 0.1-0.2 mL of the cell suspension was inoculated subcutaneously into the right flank region of each mouse. […] The tumor size was measured in two dimensions by using a caliper, and the volume was calculated by using the formula: tumor volume (mm^3) = 1/2 length (mm) × [width (mm)]^2. The change in tumor volume in the treated group relative to that in the control group was calculated according to the following formula: ΔT/C = (ΔT/ΔC) × 100%, where ΔT and ΔC are the change in tumor volume (i.e., growth) for the treated and vehicle control group, respectively. The percentage of tumor growth inhibition (%TGI) was calculated from the formula: [(1 − ΔT/ΔC) × 100].

[2] = test system: 5 ATC xenograft models (8305C, 8505C, TCO-1, KHM-5M, HTC/C3); test: as above; format: in vivo, nude mice; details: all 5 ATC xenograft models, 10 and 100 mg/kg oral once daily 14 days
Description: as §1

RO82-W-1 cells = test: Antiproliferation assay (WST-8); format: cell-based, human; details: Homo sapiens, 72 h; RO82-W-1 (DTC), antiproliferative, 3 days
KHM-5M cells = test: Antiproliferation assay (WST-8); format: cell-based; details: Homo sapiens, 72 h; KHM-5M (ATC), antiproliferative, 3 days
KIT(V654A) = molecular target: T2, KIT(V654A) (Homo sapiens, UniProt P10721, V654A); test: Cell free kinase inhibition assay; format: biochemical
T2 construct: purchased Carna Biosciences, Inc. (Kobe, Japan)

EPHB3 = molecular target: T3, EPHB3 (Homo sapiens, UniProt P54753); test: Cell free kinase inhibition assay; format: biochemical
T3 construct: purchased Carna Biosciences, Inc. (Kobe, Japan)

[3] = test system: FGFR1 and its downstream effectors (FRS2, MEK, ERK); test: Western blot of FGFR1 signaling in bFGF-stimulated RO82-W-1 cells; details: 1 h treatment, then bFGF 20 ng/mL and heparin 10 min
FGFR2 = molecular target: T4, FGFR2 (Homo sapiens, UniProt P21802); test: Cell free kinase inhibition assay; format: biochemical
T4 construct: purchased Carna Biosciences, Inc. (Kobe, Japan)

KIT(V560G) = molecular target: T5, KIT(V560G) (Homo sapiens, UniProt P10721, V560G); test: Cell free kinase inhibition assay; format: biochemical
T5 construct: purchased Carna Biosciences, Inc. (Kobe, Japan)

PLK1 = molecular target: T6, PLK1 (Homo sapiens, UniProt P53350); test: Cell free kinase inhibition assay; format: biochemical
T6 construct: purchased Carna Biosciences, Inc. (Kobe, Japan)

IGF1R = molecular target: T7, IGF1R (Homo sapiens, UniProt P08069); test: Cell free kinase inhibition assay; format: biochemical
T7 construct: purchased Carna Biosciences, Inc. (Kobe, Japan)

RO82-W-1 xenograft = test: Human thyroid cancer xenograft model, tumor growth; format: in vivo, nude mice
Description: Nude mice (CAnN.Cg-Foxn1nu/CrlCrlj, female, 5-6 weeks old) were obtained from Charles River Laboratories Japan (Kanagawa, Japan). Mice were maintained under specific pathogen-free conditions and housed in barrier facilities on a 12 h light/dark cycle, with food and water ad libitum. All procedures using laboratory animals were done in accordance with all applicable institutional and government regulatory guidelines and policies and were performed in an animal facility accredited by the Center for Accreditation of Laboratory Animal Care of the Japan Health Sciences Foundation.
Tumor cells were cultured in appropriate culture mediums. Cells were harvested with 0.05% or 0.25% (w/v) trypsin/EDTA and suspended with 50% (v/v) BD Matrigel (BD Biosciences, San Jose, CA) in the mixture of culture mediums at a density of 5–10 × 10^7 cells/mL. Then, 0.1-0.2 mL of the cell suspension was inoculated subcutaneously into the right flank region of each mouse. […] The tumor size was measured in two dimensions by using a caliper, and the volume was calculated by using the formula: tumor volume (mm^3) = 1/2 length (mm) × [width (mm)]^2. The change in tumor volume in the treated group relative to that in the control group was calculated according to the following formula: ΔT/C = (ΔT/ΔC) × 100%, where ΔT and ΔC are the change in tumor volume (i.e., growth) for the treated and vehicle control group, respectively. The percentage of tumor growth inhibition (%TGI) was calculated from the formula: [(1 − ΔT/ΔC) × 100].
Supplementary Fig. S7 Comparison of antitumor activity with antiangiogenesis activity in human differentiated thyroid cancer RO82-W-1 xenografts in nude mice.
Nude mice bearing RO82-W-1 xenografts […]
when tumor volumes reached about 200 mm3 (day 1). The tumor volume was measured on day 22. Each group consisted of 6 mice. Data are shown as means ± SD. * P < 0.05 compared with vehicle-treated mice.
(b) The percentage of tumor growth inhibition (%TGI). Each group consisted of 6 mice. Antitumor activity was calculated as %TGI at day 22. Data are shown as means ± SD. * P < 0.05 compared […]
analyze the relationship between antitumor activity (%TGI) and antiangiogenesis activity (percentage of […]
sorafenib-treated groups were plotted on the X- and Y-axes, respectively. %TGI and %MVI was determined as described in Materials and Methods. Analysis of covariance (ANCOVA) for %TGI was examined by using %MVI as a covariate (P<0.05)

AKT1 = molecular target: T8, AKT1 (Homo sapiens, UniProt P31749); test: Cell free kinase inhibition assay; format: biochemical
T8 construct: purchased Carna Biosciences, Inc. (Kobe, Japan)

PDGFRα = molecular target: T9, PDGFRα (Homo sapiens, UniProt P16234); test: Cell free kinase inhibition assay; format: biochemical
T9 construct: purchased Carna Biosciences, Inc. (Kobe, Japan)

CDK6 = molecular target: T10, CDK6 (Homo sapiens, UniProt Q00534); test: Cell free kinase inhibition assay; format: biochemical
T10 construct: purchased Carna Biosciences, Inc. (Kobe, Japan)

T8 sequence (P31749 whole entry): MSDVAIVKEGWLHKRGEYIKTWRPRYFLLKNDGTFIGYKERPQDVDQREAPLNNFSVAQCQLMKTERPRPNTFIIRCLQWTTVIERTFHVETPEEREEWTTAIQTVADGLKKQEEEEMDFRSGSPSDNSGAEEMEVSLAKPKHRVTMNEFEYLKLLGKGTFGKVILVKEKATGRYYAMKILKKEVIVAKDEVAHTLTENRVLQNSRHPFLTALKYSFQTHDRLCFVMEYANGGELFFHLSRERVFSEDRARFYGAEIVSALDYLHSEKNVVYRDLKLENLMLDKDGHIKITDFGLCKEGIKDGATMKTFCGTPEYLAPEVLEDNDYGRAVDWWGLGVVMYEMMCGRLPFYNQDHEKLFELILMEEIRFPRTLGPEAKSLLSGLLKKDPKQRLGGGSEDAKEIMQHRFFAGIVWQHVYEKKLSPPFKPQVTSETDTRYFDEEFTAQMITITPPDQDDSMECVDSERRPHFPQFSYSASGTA
T9 sequence (P16234 24-1089): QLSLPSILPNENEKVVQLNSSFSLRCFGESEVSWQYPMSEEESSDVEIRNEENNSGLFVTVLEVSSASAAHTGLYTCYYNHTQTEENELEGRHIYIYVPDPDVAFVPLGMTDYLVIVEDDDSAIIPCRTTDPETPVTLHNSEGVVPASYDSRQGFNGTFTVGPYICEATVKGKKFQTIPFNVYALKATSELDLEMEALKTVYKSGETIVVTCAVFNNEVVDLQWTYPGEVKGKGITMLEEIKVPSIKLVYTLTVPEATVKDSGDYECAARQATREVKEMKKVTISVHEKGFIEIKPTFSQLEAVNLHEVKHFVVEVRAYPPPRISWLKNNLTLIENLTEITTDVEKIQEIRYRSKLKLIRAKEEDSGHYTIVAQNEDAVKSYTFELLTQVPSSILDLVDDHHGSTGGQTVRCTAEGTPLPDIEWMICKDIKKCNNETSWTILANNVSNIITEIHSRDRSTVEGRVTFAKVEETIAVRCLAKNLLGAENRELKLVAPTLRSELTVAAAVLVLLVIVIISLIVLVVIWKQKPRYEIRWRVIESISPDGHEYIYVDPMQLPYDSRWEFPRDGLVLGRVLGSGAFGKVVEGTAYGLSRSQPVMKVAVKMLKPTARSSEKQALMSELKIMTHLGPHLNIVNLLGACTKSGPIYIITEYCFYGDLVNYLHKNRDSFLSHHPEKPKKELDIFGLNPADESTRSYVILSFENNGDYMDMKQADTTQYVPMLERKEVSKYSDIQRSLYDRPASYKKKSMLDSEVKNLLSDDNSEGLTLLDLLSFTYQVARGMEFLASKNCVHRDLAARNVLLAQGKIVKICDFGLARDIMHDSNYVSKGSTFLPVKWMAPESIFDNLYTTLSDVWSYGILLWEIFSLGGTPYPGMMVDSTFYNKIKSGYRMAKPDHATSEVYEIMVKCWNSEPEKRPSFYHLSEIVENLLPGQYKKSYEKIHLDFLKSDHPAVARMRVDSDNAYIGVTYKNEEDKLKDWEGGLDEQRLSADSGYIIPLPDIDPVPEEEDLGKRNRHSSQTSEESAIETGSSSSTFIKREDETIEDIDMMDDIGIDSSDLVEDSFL
T2 sequence (P10721 26-976 V654A): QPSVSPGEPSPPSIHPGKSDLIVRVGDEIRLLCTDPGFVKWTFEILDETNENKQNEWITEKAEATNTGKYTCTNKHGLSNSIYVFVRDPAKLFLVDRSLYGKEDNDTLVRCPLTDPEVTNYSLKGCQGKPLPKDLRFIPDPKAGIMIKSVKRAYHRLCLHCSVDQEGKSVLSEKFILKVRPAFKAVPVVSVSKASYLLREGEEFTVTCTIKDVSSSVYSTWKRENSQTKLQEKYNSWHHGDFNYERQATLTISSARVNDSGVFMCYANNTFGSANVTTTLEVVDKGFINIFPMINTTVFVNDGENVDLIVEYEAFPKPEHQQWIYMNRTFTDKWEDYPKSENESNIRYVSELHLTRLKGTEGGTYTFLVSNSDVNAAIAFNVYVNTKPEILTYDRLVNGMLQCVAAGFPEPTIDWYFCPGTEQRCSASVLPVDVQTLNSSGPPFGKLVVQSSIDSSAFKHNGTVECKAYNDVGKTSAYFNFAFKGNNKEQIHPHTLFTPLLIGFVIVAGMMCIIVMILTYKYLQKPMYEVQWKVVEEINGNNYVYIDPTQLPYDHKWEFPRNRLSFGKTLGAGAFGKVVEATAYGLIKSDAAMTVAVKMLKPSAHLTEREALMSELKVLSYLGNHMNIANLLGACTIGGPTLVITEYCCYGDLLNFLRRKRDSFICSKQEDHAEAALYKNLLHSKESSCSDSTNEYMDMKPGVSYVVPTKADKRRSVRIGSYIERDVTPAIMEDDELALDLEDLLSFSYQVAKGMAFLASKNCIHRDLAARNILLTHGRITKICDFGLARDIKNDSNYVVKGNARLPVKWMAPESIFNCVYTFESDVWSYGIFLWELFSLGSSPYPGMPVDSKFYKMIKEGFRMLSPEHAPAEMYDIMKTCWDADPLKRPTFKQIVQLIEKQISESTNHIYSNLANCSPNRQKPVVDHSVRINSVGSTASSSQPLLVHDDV
T5 sequence (P10721 26-976 V560G): as the sequence (P10721 26-976 V654A) above, with V535G, A629V counted along it
T6 sequence (P53350 whole entry): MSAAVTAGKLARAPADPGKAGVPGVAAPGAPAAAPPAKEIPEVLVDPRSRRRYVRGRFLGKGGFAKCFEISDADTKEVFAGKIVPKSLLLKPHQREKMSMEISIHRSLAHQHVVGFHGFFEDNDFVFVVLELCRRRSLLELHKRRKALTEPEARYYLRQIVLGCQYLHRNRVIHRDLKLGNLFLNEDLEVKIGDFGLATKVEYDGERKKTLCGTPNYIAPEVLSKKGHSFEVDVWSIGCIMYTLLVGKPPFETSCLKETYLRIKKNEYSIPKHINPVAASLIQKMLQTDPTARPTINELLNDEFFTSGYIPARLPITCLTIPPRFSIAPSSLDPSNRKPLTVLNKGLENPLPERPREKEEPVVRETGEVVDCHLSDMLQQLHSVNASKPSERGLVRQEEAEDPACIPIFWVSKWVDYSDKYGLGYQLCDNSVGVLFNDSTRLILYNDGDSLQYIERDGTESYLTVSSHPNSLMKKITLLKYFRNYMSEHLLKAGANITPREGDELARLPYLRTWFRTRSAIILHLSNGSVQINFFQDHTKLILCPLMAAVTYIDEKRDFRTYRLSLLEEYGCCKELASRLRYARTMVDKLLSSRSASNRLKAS
T7 sequence (P08069 31-1367): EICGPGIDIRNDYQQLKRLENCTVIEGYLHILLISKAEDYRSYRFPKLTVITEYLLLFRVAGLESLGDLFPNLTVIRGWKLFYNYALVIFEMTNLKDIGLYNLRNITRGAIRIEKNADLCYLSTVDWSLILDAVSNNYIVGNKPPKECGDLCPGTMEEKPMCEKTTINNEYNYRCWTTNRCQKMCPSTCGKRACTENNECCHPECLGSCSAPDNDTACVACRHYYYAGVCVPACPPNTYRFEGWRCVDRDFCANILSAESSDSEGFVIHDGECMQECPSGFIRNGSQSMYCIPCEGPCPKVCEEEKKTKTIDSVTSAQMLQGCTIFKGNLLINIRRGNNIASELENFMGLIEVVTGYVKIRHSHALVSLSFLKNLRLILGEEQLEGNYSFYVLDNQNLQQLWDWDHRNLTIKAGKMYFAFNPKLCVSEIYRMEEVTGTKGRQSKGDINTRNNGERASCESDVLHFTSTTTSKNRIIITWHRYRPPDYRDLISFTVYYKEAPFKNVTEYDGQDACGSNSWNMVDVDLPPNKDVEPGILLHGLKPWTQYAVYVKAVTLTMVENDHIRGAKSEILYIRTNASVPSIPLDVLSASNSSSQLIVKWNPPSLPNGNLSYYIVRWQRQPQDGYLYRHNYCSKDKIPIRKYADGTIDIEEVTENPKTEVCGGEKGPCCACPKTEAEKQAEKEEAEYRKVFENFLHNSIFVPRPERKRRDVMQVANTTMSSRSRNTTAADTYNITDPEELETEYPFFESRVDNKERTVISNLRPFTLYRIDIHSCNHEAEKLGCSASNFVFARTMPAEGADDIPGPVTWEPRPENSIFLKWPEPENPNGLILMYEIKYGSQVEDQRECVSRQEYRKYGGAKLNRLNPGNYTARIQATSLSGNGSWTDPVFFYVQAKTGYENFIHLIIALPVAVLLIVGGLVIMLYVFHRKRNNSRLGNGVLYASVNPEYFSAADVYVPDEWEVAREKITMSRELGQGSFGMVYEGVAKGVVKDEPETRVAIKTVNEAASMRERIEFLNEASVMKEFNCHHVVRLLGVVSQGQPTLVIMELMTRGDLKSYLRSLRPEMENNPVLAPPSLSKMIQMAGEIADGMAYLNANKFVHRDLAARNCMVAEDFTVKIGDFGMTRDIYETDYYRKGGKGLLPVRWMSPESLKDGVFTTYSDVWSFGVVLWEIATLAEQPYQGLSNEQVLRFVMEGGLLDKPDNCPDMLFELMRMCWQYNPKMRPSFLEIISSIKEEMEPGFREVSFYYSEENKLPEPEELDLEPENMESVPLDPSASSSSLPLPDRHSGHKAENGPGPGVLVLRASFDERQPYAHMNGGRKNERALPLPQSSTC

Structure (SMILES): COc1cc2nccc(Oc3ccc(NC(=O)NC4CC4)c(Cl)c3)c2cc1C(N)=O [Lenvatinib, Lenvatinib mesilate]
- IC50 (VEGFR, FGFR, KIT, PDGFR): < 0.1 µM
- IC50 (IKKb): > 10 µM
- antitumor activity [1]: significant antitumor activity
- antitumor activity [2]: significant antitumor activity
- IC50 (RO82-W-1 cells): 3.8 µM
- IC50 (KHM-5M cells): 28 µM
- IC50 (KIT(V654A)): 0.52 µM
- IC50 (EPHB3): > 10 µM
- phosphorylation of FGFR1, FRS2, MEK, and ERK [3]: inhibited the phosphorylation of FGFR1 and of FRS2, MEK, and ERK, in a concentration-dependent manner
- IC50 (FGFR2): 0.027 µM
- IC50 (KIT(V560G)): 0.00074 µM
- IC50 (PLK1): > 10 µM
- IC50 (IGF1R): > 10 µM
- antitumor activity (RO82-W-1 xenograft; RO82-W-1 xenograft, 1, 3, and 10 mg/kg oral once daily 14 days): significant antitumor activity
- antitumor activity compared with sorafenib (300 mg/kg) (RO82-W-1 xenograft; RO82-W-1 xenografts, 100 mg/kg oral once daily 21 days, %TGI day 22): significant potent antitumor activity
- antitumor activity (%TGI) normalized for angiogenesis inhibition (%MVI), versus sorafenib (RO82-W-1 xenograft; RO82-W-1 xenografts, ANCOVA): stronger antitumor activity
- IC50 (AKT1): > 10 µM
- IC50 (PDGFRα): 0.029 µM
- IC50 (CDK6): > 10 µM
